Experimental data taken from ChEMBL document CHEMBL5500372, “Novel natural osthole-inspired amphiphiles as membrane targeting antibacterials against methicillin-resistant Staphylococcus aureus (MRSA)” (Eur J Med Chem, 2024).
The source made the active and inactive calls. The rule behind the calls is not given here.

Legend:
Staphylococcus aureus [1] = experiment: Antibacterial activity against methicillin-resistant Staphylococcus aureus clinical isolate 13 measured after 18 hrs by CLSI based broth microdilution method; type: functional
Staphylococcus aureus [2] = experiment: Antibacterial activity against methicillin-resistant Staphylococcus aureus clinical isolate 11 measured after 18 hrs by CLSI based broth microdilution method; type: functional
Staphylococcus aureus [3] = experiment: Antibacterial activity against methicillin-resistant Staphylococcus aureus clinical isolate 20 measured after 18 hrs by CLSI based broth microdilution method; type: functional
Staphylococcus aureus [4] = experiment: Antibacterial activity against methicillin-resistant Staphylococcus aureus clinical isolate 14 measured after 18 hrs by CLSI based broth microdilution method; type: functional
Cell membrane [5] = experiment: Disruption of cell membrane in methicillin-resistant Staphylococcus aureus clinical isolate 16 assessed as appearance of broken surface at 16 ug/ml measured after 4 hrs by SEM analysis; type: cell membranes; details: dose 16.0 µg/ml
Cell membrane [6] = experiment: Induction of cytoplasmic membrane permeabilization in methicillin-resistant Staphylococcus aureus clinical isolate 16 assessed as increase in fluorescence intensity at 8 to 32 time MIC measured for 10 mins by SYTOX green dye based fluorescence analysis; type: cell membranes
Cell membrane [7] = experiment: Induction of cytoplasmic membrane depolarization in methicillin-resistant Staphylococcus aureus clinical isolate 16 assessed as fold increase in fluorescence intensity at 32 time MIC measured after 35 mins by DiSC3-5 dye based fluorescence method
Cell membrane [8] = experiment: Induction of cell membrane disruption in methicillin-resistant Staphylococcus aureus clinical isolate 16 assessed as intact cells (Q3 region) at 8 ug/ml measured after 2 hrs by SYTO-9 and PI staining based flow cytometry analysis (reference value: 96.0%); type: cell membranes; details: dose 8.0 µg/ml
Cell membrane [9] = experiment: Induction of cell membrane disruption in methicillin-resistant Staphylococcus aureus clinical isolate 16 assessed as intact cells (Q3 region) at 16 ug/ml measured after 2 hrs by SYTO-9 and PI staining based flow cytometry analysis (reference value: 96.0%); type: cell membranes; details: dose 16.0 µg/ml
Cell membrane [10] = experiment: Induction of cell membrane disruption in methicillin-resistant Staphylococcus aureus clinical isolate 16 assessed as dead cells (Q1 region) at 4 ug/ml measured after 2 hrs by SYTO-9 and PI staining based flow cytometry analysis (reference value: 0%); type: cell membranes; details: dose 4.0 µg/ml
Cell membrane [11] = experiment: Induction of cell membrane disruption in methicillin-resistant Staphylococcus aureus clinical isolate 16 assessed as dead cells (Q1 region) at 8 ug/ml measured after 2 hrs by SYTO-9 and PI staining based flow cytometry analysis (reference value: 0%); type: cell membranes; details: dose 8.0 µg/ml
Cell membrane [12] = experiment: Induction of cell membrane disruption in methicillin-resistant Staphylococcus aureus clinical isolate 16 assessed as dead cells (Q1 region) at 32 ug/ml measured after 2 hrs by SYTO-9 and PI staining based flow cytometry analysis (reference value: 0%); type: cell membranes; details: dose 32.0 µg/ml
Cell membrane [13] = experiment: Induction of cell membrane disruption in methicillin-resistant Staphylococcus aureus clinical isolate 16 assessed as dead cells (Q1 region) at 64 ug/ml measured after 2 hrs by SYTO-9 and PI staining based flow cytometry analysis (reference value: 0%); type: cell membranes; details: dose 64.0 µg/ml
Staphylococcus aureus [14] = experiment: Antibacterial activity against methicillin-resistant Staphylococcus aureus clinical isolate 16 measured after 18 hrs in presence of phosphatidylethanolamine by checkerboard broth dilution method; type: functional, organism-based
Cell membrane [15] = experiment: Disruption of cell membrane in methicillin-resistant Staphylococcus aureus clinical isolate 16 assessed as increase in intracellular ROS level incubated for 50 mins by DCFH-DA staining based fluorescence assay; type: cell membranes
[16] = Stability in 50% sheep blood plasma measured after 6 hrs; type: ADME, cell-free, Ovis aries
[17] = Cytotoxicity in human L02 cells assessed as survival rate at 16 ug/ml measured after 24 hrs by CCK-8 method relative to control; type: toxicity, cell-based; details: at 16 µg/mL, read-out: Survival
[18] = Toxicity in female KM mouse assessed as animal death at 80 mg/kg, sc measured after 24 hrs; type: organism-based; details: in vivo
[19] = Toxicity in female KM mouse assessed as swelling in skin at 40 to 80 mg/kg, sc measured after 24 hrs; type: organism-based; details: in vivo, dose 40-80 mg/kg
[20] = Toxicity in female KM mouse assessed as effect on red blood cell at upto 20 mg/kg, sc measured after 24 hrs; type: organism-based; details: in vivo
[21] = Toxicity in female KM mouse assessed as effect on mean corpuscular volume at upto 20 mg/kg, sc measured after 24 hrs; type: organism-based; details: in vivo
[22] = Toxicity in female KM mouse assessed as effect on UREA at upto 20 mg/kg, sc measured after 24 hrs by biochemical test; type: organism-based; details: in vivo
[23] = Toxicity in female KM mouse assessed as effect on albumin at upto 20 mg/kg, sc measured after 24 hrs by biochemical test; type: organism-based; details: in vivo
[24] = Toxicity in female KM mouse assessed as effect on back skin at 20 mg/kg, sc measured after 24 hrs by H and E staining based analysis; type: organism-based; details: in vivo
[25] = Toxicity in female KM mouse assessed as effect on lung at 20 mg/kg, sc measured after 24 hrs by H and E staining based analysis; type: organism-based; details: in vivo
[26] = Toxicity in female KM mouse assessed as effect on histopathological abnormalities in lungs at 20 mg/kg, sc measured after 24 hrs by H and E staining based analysis; type: organism-based; details: in vivo
Staphylococcus aureus [27] = experiment: Antibacterial activity against methicillin-resistant Staphylococcus aureus clinical isolate 16 infected in female KM mouse skin abscess model assessed as effect on skin abscess at 10 mg/kg, sc measured after 24 hrs; type: functional, organism-based
Staphylococcus aureus [28] = experiment: Antibacterial activity against methicillin-resistant Staphylococcus aureus clinical isolate 16 infected in female KM mouse skin abscess model assessed as effect on abscess in intradermal tissue at 5 mg/kg, sc measured after 24 hrs; type: functional, organism-based
Staphylococcus aureus [29] = experiment: Antibacterial activity against methicillin-resistant Staphylococcus aureus clinical isolate 16 infected in female KM mouse skin abscess model assessed as reduction in infiltration of inflammatory cells in dermis at 10 mg/kg, sc measured after 24 hrs by H and E staining based analysis; type: functional, organism-based
Staphylococcus aureus [30] = experiment: Antibacterial activity against methicillin-resistant Staphylococcus aureus clinical isolate 16 infected in female KM mouse skin abscess model assessed as reduction in bacterial load at 10 mg/kg, sc measured after 24 hrs relative to control; type: functional; set-up: scale not given: the % may be the effect or the level left
Staphylococcus aureus [31] = experiment: Antibacterial activity against methicillin-resistant Staphylococcus aureus clinical isolate 16 infected in female KM mouse skin abscess model assessed as log reduction in bacterial load at 10 mg/kg, sc measured after 24 hrs (reference value: 8.508 log10CFU/g); type: functional
[32] = Toxicity in female KM mouse skin abscess model infected with methicillin-resistant Staphylococcus aureus clinical isolate 16 assessed as effect on liver at 5 to 10 mg/kg, sc measured after 24 hrs by H and E staining based analysis; type: organism-based; details: in vivo, dose 5-10 mg/kg
[33] = Toxicity in female KM mouse skin abscess model infected with methicillin-resistant Staphylococcus aureus clinical isolate 16 assessed as effect on spleen at 5 to 10 mg/kg, sc measured after 24 hrs by H and E staining based analysis; type: organism-based; details: in vivo, dose 5-10 mg/kg
[34] = Toxicity in female KM mouse skin abscess model infected with methicillin-resistant Staphylococcus aureus clinical isolate 16 assessed as effect on lung at 5 to 10 mg/kg, sc measured after 24 hrs by H and E staining based analysis; type: organism-based; details: in vivo, dose 5-10 mg/kg
[35] = Toxicity in female KM mouse skin abscess model infected with methicillin-resistant Staphylococcus aureus clinical isolate 16 assessed as effect on kidney at 5 to 10 mg/kg, sc measured after 24 hrs by H and E staining based analysis; type: organism-based; details: in vivo, dose 5-10 mg/kg

CCCCCCNC(=O)C[N+](C)(C)CCCCCOc1ccc2ccc(=O)oc2c1CC=C(C)C.[Br-]
MIC (Staphylococcus aureus [1]): 2 µg/mL
MIC (Staphylococcus aureus [2]): 1 µg/mL
MIC (Staphylococcus aureus [3]): 2 µg/mL
MIC (Staphylococcus aureus [4]): 1 µg/mL
Activity (Cell membrane [5]): Active
Activity (Cell membrane [6]): Active
fold change (FC) (Cell membrane [7]): 5
Activity (Cell membrane [8]): 45.3%
Activity (Cell membrane [9]): 1.1%
Activity (Cell membrane [10]): 0.12%
Activity (Cell membrane [11]): 0.34%
Activity (Cell membrane [12]): 61.7%
Activity (Cell membrane [13]): 96.2%
Activity (Staphylococcus aureus [14]): Active
Activity (Cell membrane [15]): Dose-Dependent Effect
Stability [16]: Stable
viability at 24 h, 16 ug/ml [17]: 60%
Activity [18]: Non-Toxic
Activity [19]: Toxic
Activity [20]: Non-Toxic
Activity [21]: Non-Toxic
Activity [22]: Non-Toxic
Activity [23]: Non-Toxic
Activity [24]: Non-Toxic
Activity [25]: Non-Toxic
Activity [26]: Non-Toxic
Activity (Staphylococcus aureus [27]): inactive
Activity (Staphylococcus aureus [28]): Active
Activity (Staphylococcus aureus [29]): Active
Activity (Staphylococcus aureus [30]): 99.998%
Activity (Staphylococcus aureus [31]): 4.458 log10CFU/g
Activity [32]: Non-Toxic
Activity [33]: Non-Toxic
Activity [34]: Non-Toxic
Activity [35]: Non-Toxic
